Tested on: P. falciparum 3D7 growth, pLDH absorbance
Assay: P. falciparum 3D7 growth inhibition, dose response, strain 3D7 (AID 2305)

Question: `Cc1ccc(C(C)C)c(Oc2ccc3nc(N)nc(N)c3c2)c1` was tested. Which IC50 did it give?
Answer: Its IC50 is 10 nM.

Question: With `Cc1ccc(C(=O)Cn2nc(-c3ccc(C)c(S(=O)(=O)N4CCCCC4)c3)ccc2=O)cc1` as the molecule, how does the IC50 read?
Answer: The IC50 was 330 nM.

Question: Which IC50 does the source give for `CC[C@H]1CN2CC[C@H]1C[C@H]2C(O)c1cc(OC)nc2ccccc12` (some centres not stated) here?
Answer: The IC50 was 140 nM.

Question: How did the IC50 turn out when `CCCN1CCN(CC(O)CNC(=O)Nc2ccc(Br)cc2)CC1` (configuration not stated) was run?
Answer: The IC50 was 60 nM.

Question: For `COc1ccc2ccccc2c1C=NNc1cc(C)nc2cc(C(F)(F)F)ccc12`, which IC50 is on record?
Answer: Its IC50 is 1040 nM.

Question: For `CCn1c(-c2nc(-c3ccnc(N4CCN(C)CC4)c3)cnc2N)nc2cc(S(C)(=O)=O)ccc21`, which IC50 is on record?
Answer: The IC50 was 810 nM.

Question: How did the IC50 turn out when `O=C(NC1CCC(CN2CCC(c3c[nH]c4ccccc34)CC2)CC1)c1cnn(-c2ccccc2)c1-c1ccccc1Cl` (configuration not stated) was run?
Answer: The IC50 was 180 nM.

Question: `COc1ccc(CNCc2ccc(F)cc2)cc1-c1cccc(S(=O)(=O)NCCN2CCCC2)c1` was tested. Which IC50 did it give?
Answer: Its IC50 is 800 nM.

Question: How did the IC50 turn out when `O=C(NCCc1ccccc1)N(Cc1ccccc1-c1ccc(CNCCc2ccccc2)cc1)C1CCN(Cc2ccccc2)CC1` was run?
Answer: Its IC50 is 720 nM.

Question: For `Cc1cc(N2CCCC2)nc(Nc2ccc(NC(=O)C(C)C)cc2)n1`, which IC50 is on record?
Answer: The IC50 was 1100 nM.

Question: For `CON=Cc1sc(CNCCCNc2cc(=O)c3ccccc3[nH]2)c(C)c1Br`, which IC50 is on record?
Answer: Its IC50 is 960 nM.

Question: Which IC50 does the source give for `CCCc1c(Cl)cc(CNCCCNc2nc3ccncc3[nH]2)cc1Cl` here?
Answer: Its IC50 is 740 nM.

Question: How did the IC50 turn out when `CN(C)CCC(O)(c1ccc(Br)cc1)c1cccnc1` (configuration not stated) was run?
Answer: Its IC50 is 830 nM.

Question: With `NC(N)=Nc1nc(-c2cccc(NC(=O)C(F)(F)F)c2)cs1` as the molecule, how does the IC50 read?
Answer: The IC50 was 1050 nM.

Question: For `NCC1CCCN1Cc1ccc(-c2ccc(-c3nc4ccccc4[nH]3)s2)cc1` (configuration not stated), which IC50 is on record?
Answer: The IC50 was 930 nM.

Question: How did the IC50 turn out when `Cc1nnc2c(N(C(=O)NCCc3ccccc3)C(=O)NCCc3ccccc3)cc3cc(Cl)ccc3n12` was run?
Answer: The IC50 was 950 nM.

Question: For `Cc1ccc(CN2CCCCC(NC(=O)c3cc4ccccc4s3)C2)cc1` (configuration not stated), which IC50 is on record?
Answer: Its IC50 is 900 nM.

Question: With `CCCCN1CCN(CCCCNc2c3ccccc3nc3ccccc23)CC1` as the molecule, how does the IC50 read?
Answer: Its IC50 is 170 nM.

Question: For `CCOC(=O)NC1=NC(C)(C)N(OCCCOc2ccc(C)cc2C)C(NC(=O)OCC)=N1`, which IC50 is on record?
Answer: The IC50 was 130 nM.

Question: `CCc1c[nH]c2c(N3CCCC3=O)cc(C(=O)N[C@@H](Cc3ccccc3)[C@H](O)CNC3CCCCC3)cc12` was tested. Which IC50 did it give?
Answer: The IC50 was 100 nM.

Question: How did the IC50 turn out when `CCOc1ccc(NC(=O)c2ccc(CN3CCCN(Cc4cccc(O)c4)CC3)cc2)cc1` was run?
Answer: The IC50 was 1310 nM.

Question: Which IC50 does the source give for `Cc1cc(C(=O)Nc2ccc(-c3ccccc3)cc2)no1` here?
Answer: The IC50 was 690 nM.

Question: For `O=C(Nc1cccc(-c2nc3ccccc3s2)c1)c1ccccc1[N+](=O)[O-]`, which IC50 is on record?
Answer: Its IC50 is 770 nM.

Question: With `CN1CCN(c2ccnc3cc4c(cc23)N(C(=O)Nc2ccc3c(c2)CCCC3=O)CC4)CC1` as the molecule, how does the IC50 read?
Answer: Its IC50 is 620 nM.

Question: With `O=C(Nc1ccncc1)Nc1ccc2c(c1)CCN(C1CCC1)CC2` as the molecule, how does the IC50 read?
Answer: The IC50 was 1130 nM.

Question: Which IC50 does the source give for `c1ccc(-c2cc(NCCCn3ccnc3)nc(-c3cccnc3)n2)cc1` here?
Answer: Its IC50 is 980 nM.

Question: `CCOc1cc2c(cc1OCC)C(c1cc(OC)c(O)cc1Cl)NCC2` (configuration not stated) was tested. Which IC50 did it give?
Answer: Its IC50 is 750 nM.

Question: Which IC50 does the source give for `Cc1cc(C2CCN(CCCCNC(=O)c3ccc(-c4ccc(C#N)cc4)cc3)CC2)c(C)cc1O` here?
Answer: The IC50 was 850 nM.

Question: For `FC(F)(F)c1ccc2nccc(NN=Cc3ccccc3Cl)c2c1`, which IC50 is on record?
Answer: The IC50 was 800 nM.

Question: Which IC50 does the source give for `COc1ccc(NCCCNc2ccnc3ccccc23)cc1` here?
Answer: Its IC50 is 970 nM.

Question: With `CCN(CC)CCN(Cc1ccc(-c2ccc(C(F)(F)F)cc2)cc1)C(=O)Cn1c(CCc2cccc(F)c2F)nc(=O)c2ccccc21` as the molecule, how does the IC50 read?
Answer: Its IC50 is 670 nM.

Question: For `O=C(Nc1ccccc1)Nc1cccc(-c2nn3c(OCC4CCCCN4)cccc3c2-c2ccncc2)c1` (configuration not stated), which IC50 is on record?
Answer: Its IC50 is 860 nM.

Question: Which IC50 does the source give for `Cc1ccc(/C=C/C(=O)NCCCCCN2CCN(C(=O)Nc3ccc(Cl)c(C(F)(F)F)c3)CC2)cc1` here?
Answer: The IC50 was 1110 nM.

Question: For `CN(C)c1ccc(C2(c3ccccc3)N=C(N)N(CCCc3ccccc3)C2=O)cc1` (configuration not stated), which IC50 is on record?
Answer: Its IC50 is 970 nM.

Question: `CCCCCCOc1ccc(C(=O)NCCCC2CCN(CCCCCNC(=O)C=Cc3ccc(Cl)c(Cl)c3)CC2)cc1` was tested. Which IC50 did it give?
Answer: The IC50 was 850 nM.

Question: Which IC50 does the source give for `O=C(Nc1ccc(Cl)c(Cl)c1)Nc1cc(C(F)(F)F)ccc1Cl` here?
Answer: Its IC50 is 1440 nM.

Question: For `CCOC(=O)C(C(=O)OCC)c1nc(C)ns1`, which IC50 is on record?
Answer: The IC50 was 470 nM.

Question: For `Cc1ccc2nc(-c3ccc(C(=O)NC4CCN(Cc5ccccc5)CC4)s3)[nH]c2c1`, which IC50 is on record?
Answer: Its IC50 is 1010 nM.

Question: With `O=C(/C=C/c1ccc(Cl)c(Cl)c1)N1CCC(CCN2CCC(c3c[nH]c4cc5c(cc34)OCO5)CC2)CC1` as the molecule, how does the IC50 read?
Answer: The IC50 was 730 nM.

Question: With `CCC(CC)C(CC(=O)NC(C)(C)CCc1ccccc1OC)Nc1ccc(C#N)c2ccccc12` (configuration not stated) as the molecule, how does the IC50 read?
Answer: Its IC50 is 800 nM.

Question: `Cc1[nH]c(C)c(-c2ccc(Oc3cc(Cl)cc(Cl)c3)cc2)c(=O)c1Cl` was tested. Which IC50 did it give?
Answer: Its IC50 is 520 nM.

Question: With `O=[N+]([O-])c1cccc(NC(=S)N2CCCN(Cc3ccc(Cl)cc3Cl)CC2)c1` as the molecule, how does the IC50 read?
Answer: The IC50 was 930 nM.

Question: Which IC50 does the source give for `CCOC(=O)c1ccc(OCc2ccc(-c3ccccc3)cc2)cc1` here?
Answer: Its IC50 is 810 nM.

Question: For `O=C1C(c2ccccc2)=C(Nc2cc(Cl)cc(Cl)c2)c2ccccc21`, which IC50 is on record?
Answer: The IC50 was 370 nM.

Question: For `CCc1cc2c3c(N)nc(N)nc3ccc2n1C(CC)CC`, which IC50 is on record?
Answer: The IC50 was 60 nM.

Question: Which IC50 does the source give for `CC(C)(C)c1ccc(NC(=O)c2ccc(CN3CCCN(Cc4cccc(F)c4)CC3)cc2)cc1` here?
Answer: Its IC50 is 1120 nM.

Question: Which IC50 does the source give for `COc1cc2nc(N3CCC(CNC(=O)c4ccc(NC(=O)c5ccc(Cl)cc5)cc4)CC3)nc(N)c2cc1OC` here?
Answer: The IC50 was 260 nM.

Question: For `CC(C)Cn1ccc2c3c(N)nc(N)nc3ccc21`, which IC50 is on record?
Answer: The IC50 was 30 nM.

Question: For `Cc1nc(Nc2ccc(C)c(Cl)c2)c2c(C)noc2n1`, which IC50 is on record?
Answer: Its IC50 is 890 nM.

Question: With `CN(CCc1ccccc1)c1ncc(-c2cccc(CNCCC3CCCN3C)c2)cn1` (configuration not stated) as the molecule, how does the IC50 read?
Answer: Its IC50 is 870 nM.

Question: Which IC50 does the source give for `COc1ccc2nccc(N3CCC(O)(CCNCc4ccc5c(n4)NC(=O)CO5)CC3)c2n1` here?
Answer: Its IC50 is 820 nM.

Question: `Cc1ccc(C[C@H](C)NC[C@H](O)c2cccc(C(F)(F)F)c2)cc1` was tested. Which IC50 did it give?
Answer: Its IC50 is 980 nM.

Question: For `COc1c(C2CCN(CCN3CCC(NC(=O)c4ccc(-c5ccc(C(F)(F)F)cc5)cc4)CC3)CC2)ccc2c1CCCC2`, which IC50 is on record?
Answer: The IC50 was 1360 nM.

Question: How did the IC50 turn out when `CCCCCCCCOc1ccc(N2C(N)=NC(N)=NC2(C)C)cc1` was run?
Answer: The IC50 was 500 nM.

Question: With `CCCCN(C)CC#Cc1ccc2[nH]c(C)c(Cl)c(=O)c2c1` as the molecule, how does the IC50 read?
Answer: The IC50 was 130 nM.

Question: With `Cc1cc(=O)c(-c2ccc(Oc3cccc(Cl)c3)cc2)c(C)[nH]1` as the molecule, how does the IC50 read?
Answer: Its IC50 is 600 nM.

Question: `Cc1cccc2[nH]c(-c3cc(-c4cn[nH]c4)cnc3N)nc12` was tested. Which IC50 did it give?
Answer: The IC50 was 220 nM.

Question: For `Cc1cccc2[nH]c(-c3cccc(-c4cccc(CNC(C)C)c4)c3)nc12`, which IC50 is on record?
Answer: Its IC50 is 340 nM.

Question: With `COc1ccc(Br)cc1/C=C/C(=O)Nc1ccc(C2CCN(C)CC2)cc1` as the molecule, how does the IC50 read?
Answer: The IC50 was 500 nM.

Question: With `O=C(Nc1ccccc1N1CCOCC1)c1ncoc1-c1ccccc1C(F)(F)F` as the molecule, how does the IC50 read?
Answer: Its IC50 is 1060 nM.

Question: How did the IC50 turn out when `O=C(CNC1=NCCN1)Nc1ccc(NC(=O)Nc2ccc(NC(=O)CNC3=NCCN3)cc2)cc1` was run?
Answer: Its IC50 is 780 nM.

Question: Which IC50 does the source give for `N#Cc1cccc(Nc2nccc(NCC(O)c3ccccc3C(F)(F)F)n2)c1` (configuration not stated) here?
Answer: Its IC50 is 830 nM.

Question: `Nc1ccc2[nH]cc(C3CCN(CCC4CCN(C(=O)/C=C/c5ccc(Cl)c(Cl)c5)CC4)CC3)c2n1` was tested. Which IC50 did it give?
Answer: The IC50 was 740 nM.

Question: `CN1CCC(NCc2ccc(-c3cccc(S(=O)(=O)NCCc4ccccn4)c3)cc2)CC1` was tested. Which IC50 did it give?
Answer: Its IC50 is 990 nM.

Question: How did the IC50 turn out when `CCc1c(C)nc(-n2nc(C)cc2NC(=O)CC(c2ccccc2)c2ccccc2)[nH]c1=O` was run?
Answer: The IC50 was 650 nM.

Question: Which IC50 does the source give for `O=C(/C=C/c1ccc(Cl)c(Cl)c1)NCCCCCN1CCCC(CNS(=O)(=O)c2ccc(F)cc2)C1` (configuration not stated) here?
Answer: The IC50 was 1160 nM.

Question: Which IC50 does the source give for `CCNc1cc(C(=O)N[C@@H](Cc2ccccc2)[C@H](O)CN[C@@H](C)c2cccc(OC)c2)cc(N2CCCC2=O)c1` here?
Answer: Its IC50 is 770 nM.

Question: For `COc1cc(OC)cc(C(=O)Nc2ccc(Nc3nc(C)cc(N(C)C)n3)cc2)c1`, which IC50 is on record?
Answer: The IC50 was 650 nM.

Question: For `Cc1cc(C(=O)Nc2ccc3c(c2)CCN3C2CCN(Cc3ccc(O)cc3)C2)no1` (configuration not stated), which IC50 is on record?
Answer: The IC50 was 770 nM.

Question: With `Cc1ccccc1CN1CCCN(Cc2ccc(C(=O)Nc3ccc(C(C)(C)C)cc3)cc2)CC1` as the molecule, how does the IC50 read?
Answer: Its IC50 is 860 nM.

Question: For `O=C(/C=C/c1ccc(Cl)c(Cl)c1)NCCCCCN1CCC(NC(=O)c2ccc([N+](=O)[O-])cc2)CC1`, which IC50 is on record?
Answer: The IC50 was 670 nM.

Question: How did the IC50 turn out when `O=C(/C=C/c1ccc(Cl)c(Cl)c1)NCCCCCN1CCC(NC(=O)Nc2ccc(Cl)c(Cl)c2)CC1` was run?
Answer: The IC50 was 890 nM.

From PubChem BioAssay AID2305 (GlaxoSmithKline (GSK), 2010)
